Here are results for 3 compounds from patent publication US12686687B2, “Compounds and uses thereof” (Foghorn Therapeutics Inc., priority 2019, dated 2026).

“Also recorded” adds a separate entry of the source.

Experiment [1] deals with synovial sarcoma cell lines (SYO1, HS-SY-II, and ASKA). The experiment in a line: Growth of synovial sarcoma cell lines, daily treatment, crystal violet at day 14. Type of experiment: cell-based, human. The following applies: treated daily, day 14 (FIG. 8). How it is done: (§1) Procedure: Cells were seeded into 6-well or 12-well plates and were treated daily with a BRD9 degrader (Compound 1), a bromo-domain BRD9 binder (Compound 2), E3 ligase binder (lenalidomide), DMSO, or staurosporin (positive control for cell killing), at indicated concentrations. The number of cells was optimized for each cell line. Growth media was refreshed every 5 days. By day 14, medium was removed, cells were washed with PBS, and stained using 500 μL of 0.005% (w/v) crystal violet solution in 25% (v/v) methanol for at least 1 hour at room temperature.

Experiment [2] relates to SYO1 cells. Put plainly: Apoptosis assay (Annexin V-FITC) in SYO1 cells. In kind it is cell-based, human. The following applies: SYO1, 200 nM or 1 μM, 8 days, compared to DMSO controls. How it is done:
(§2) Procedure: SYO1 cells were treated for 8 or 13 days with DMSO, a BRD9 degrader (Compound 1) at 200 nM or 1 μM, or an E3 ligase binder (lenalidomide) at 200 nM. Compounds were refreshed every 5 days. Cell cycle analysis was performed using the Click-iT™ Plus EdU Flow Cytometry Assay (Invitrogen). The apoptosis assay was performed using the Annexin V-FITC Apoptosis Detection Kit (Sigma A9210).

The test system of experiment [3] is non-synovial control cancer cell lines (293T, A549, G401). The experiment in a line: Growth of non-synovial control cancer cell lines (crystal violet staining, colony imaging). Type of experiment: cell-based, human. Particulars: 1 μM or indicated doses (FIGS. 5-7). On the procedure:
(§3) Cells were treated with DMSO or the BRD9 degrader, Compound 1, at indicated concentrations, and proliferation was monitored from day 7 to day 14 by measuring confluency over time using an IncuCyte live cell analysis system (FIG. 5). Growth medium and compounds were refreshed every 3-4 days.
(§4) Cells were seeded into 12-well plates and treated with DMSO, 1 μM BRD9 inhibitor, Compound 2 (also known as BI-7273, see Martin et al, J Med Chem. 59(10):4462-4475 (2016); see structure of compound 2 below), or 1 μM BRD9 degrader, Compound 1.
(§5) The number of cells was optimized for each cell line. Growth medium and compounds were refreshed every 3-5 days. SYO1, Yamato, A549, 293T and HS-SY-II cells were fixed and stained at day 11. ASKA cells were fixed and stained at day 23. Staining was done by incubation with crystal violet solution (0.5 g Crystal Violet, 27 ml 37% Formaldehyde, 100 mL 10×PBS, 10 mL Methanol, 863 dH2O to 1 L) for 30 minutes followed by 3× washes with water and drying the plates for at least 24h at room temperature. Subsequently plates were scanned on an Odyssey CLx Imaging system (FIG. 6).
(§6) Cells were seeded into 96-well ultra low cluster plate (Costar, #7007) in 200 μL complete media and treated at day 2 with DMSO, Staurosporin, or BRD9 degrader, Compound 1, at indicated doses (FIG. 7).

The test system of experiment [4] is SYO1 cells. Put plainly: Cell cycle analysis (Click-iT Plus EdU flow cytometry) in SYO1 cells. In kind it is cell-based, human. The following applies: SYO1, 200 nM or 1 μM, 8 or 13 days, compared to DMSO and lenalidomide. How it is done: as §2
For orientation: A flow cytometer gives signals particle by particle.

Experiment [5] relates to synovial sarcoma cell lines (SYO1, Yamato, HS-SY-II, and ASKA). Put plainly: Growth of synovial sarcoma cell lines (IncuCyte confluency, crystal violet staining, colony imaging). Type of experiment: cell-based, human. Particulars: 1 μM or indicated concentrations (FIGS. 5-7). How it is done: as §3, §4, §5, §6
The test system of experiment [6] is non-synovial control cancer cell lines (RD, HCT116, and Calu6). Put plainly: Growth of non-synovial control cancer cell lines, daily treatment, crystal violet at day 14. Particulars: treated daily, day 14 (FIG. 9). In kind it is cell-based, human. On the procedure: as §1
Experiment [7] addresses T1, Nanoluciferase-BRD9 fusion protein (3×FLAG-NLuc-BRD9) in SYO-1 cells (Homo sapiens, UniProt Q9H8M2).
T1 construct: expressed in transfected cells; host or cells: SYO-1
T1 sequence (Q9H8M2 1-597): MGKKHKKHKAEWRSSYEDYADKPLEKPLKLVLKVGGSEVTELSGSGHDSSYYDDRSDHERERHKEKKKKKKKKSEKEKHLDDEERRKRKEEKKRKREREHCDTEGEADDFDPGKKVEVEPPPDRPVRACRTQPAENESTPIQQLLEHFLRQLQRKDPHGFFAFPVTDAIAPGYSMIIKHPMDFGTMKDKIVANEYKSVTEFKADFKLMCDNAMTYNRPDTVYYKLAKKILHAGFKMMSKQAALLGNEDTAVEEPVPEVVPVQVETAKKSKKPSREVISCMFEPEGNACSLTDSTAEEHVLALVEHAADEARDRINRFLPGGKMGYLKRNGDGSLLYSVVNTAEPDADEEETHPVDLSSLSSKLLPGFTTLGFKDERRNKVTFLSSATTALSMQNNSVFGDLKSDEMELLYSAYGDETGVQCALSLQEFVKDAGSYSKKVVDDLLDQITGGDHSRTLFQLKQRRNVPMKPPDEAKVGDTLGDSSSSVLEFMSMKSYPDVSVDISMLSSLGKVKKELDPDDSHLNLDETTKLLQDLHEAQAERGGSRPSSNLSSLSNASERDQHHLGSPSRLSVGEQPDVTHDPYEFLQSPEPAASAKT
Put plainly: SYO1 BRD9 NanoLuc degradation assay. Type of experiment: cell-based. The following applies: 6 hours treatment, 1 μM top dose; read-out: SYO1 BRD9-NanoLuc degradation IC50. In outline:
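Stable SYO-1 line expressing 3×FLAG-NLuc-BRD9 was seeded at 8000 cells/well, then treated next day for 6 h with 10-point 3-fold dilutions (top 1 μM final). Nano-Glo luminescence was read. % inhibition was normalised to DMSO (high control) and 1 μM reference BRD9 degrader (low control).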

Experiment [8] deals with T2, BRD9 bromodomain (Flag-BRD9 P133-K239; Swiss Prot Q9H8M2) (Homo sapiens, UniProt Q9H8M2).
T2 construct: His-Flag-BRD9 (P133-K239); Swiss Prot Q9H8M2; His6 with TEV site (mgsshhhhhhenlyfq/) (N, cleaved yes); made in house
T2 sequence (Q9H8M2 133-239): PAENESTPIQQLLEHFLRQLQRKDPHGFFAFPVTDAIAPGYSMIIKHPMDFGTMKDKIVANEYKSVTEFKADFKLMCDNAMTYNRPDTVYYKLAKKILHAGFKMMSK
The experiment in a line: BRD9 bromodomain TR-FRET competition binding assay. The following applies: 3 nM Flag-BRD9, 3.75 nM biotinylated ligand, 90 minutes at room temperature. On the procedure:
Cleaved His tag was removed by purification. […] DMSO or 3-fold serially diluted compounds were then added to the Proxiplate followed by addition of Flag-BRD9. After a 10-minute incubation at room temperature, Eu-W1024 anti-FLAG (PerkinElmer, AD0273) was added.
On the technique in general: Time-resolved FRET reads energy transfer from a long-lived donor to a nearby acceptor.

With `COc1cc(-c2cn(C)c(=O)c3cnccc23)cc(OC)c1CN(C)CC(=O)NCCOCCOCCNc1cccc2c1C(=O)N(C1CCC(=O)NC1=O)C2=O` (stereo not drawn) [Compound 1], the “inhibition of cell growth” value was “inhibition of the growth of the cells; also recorded: most significant growth inhibition” in experiment [1], “does not result in inhibition of the growth” in experiment [3], “inhibition of the growth of the cells” in experiment [5] and “did not result in inhibition of the growth” in experiment [6]. Moreover, in experiment [2], the “early- and late-apoptotic cells” value was “increased numbers of early- and late-apoptotic cells”. In addition, in experiment [4], the “cells in the S-phase of the cell cycle” value was “reduced numbers of cells in the S-phase”.

Regarding `COc1cc(-c2cn(C)c(=O)c3cnccc23)cc(OC)c1CN(C)C` [Compound 2], the “inhibition of cell growth” value in experiment [1] is “inhibition of the growth of the cells”; in experiment [3] it was “does not result in inhibition of the growth”; in experiment [5], “inhibition of the growth of the cells”; in experiment [6], “did not result in inhibition of the growth”.

Usually IC50 stands for the concentration needed to halve the response being measured. Low readings indicate higher potency, high ones lower potency. Take `COc1cc(-c2cn(C)c(=O)c3cc(C(=O)NC4CCN(CCCCCOc5ccc6c(c5)C(=O)N(C5CCC(=O)NC5=O)C6=O)CC4(F)F)sc23)cc(OC)c1CN(C)C` (stereo not drawn) [Compound D15, 7-[4-[(dimethylamino)methyl]-3,5-dimethoxyphenyl]-N-[1-(5-[[2-(2,6-dioxopiperidin-3-yl)-1,3-dioxoisoindol-5-yl]oxy]pentyl)-3,3-difluoropiperidin-4-yl]-5-methyl-4-oxothieno[3,2-c]pyridine-2-carboxamide]: the DC50 in experiment [7] is less than 10 nM. In experiment [8], this compound had an IC50 of less than 10 nM.
